# Tests used:
# [1] = system: antibodies in sera from SARS patients (sera 1a, 1b, 2, 6, 37, 62, London, SARS-yellow, SARS-green); format: binding, human; design: Binding of serum 6 to linear peptides of protein X1 of SARS-CoV Urbani / Binding of serum 37 to linear peptides of protein X1 of SARS-CoV Urbani / Binding of serum 6 to looped/cyclic peptide (PEPSCAN-ELISA) / Binding of serum 37 to looped/cyclic peptide (PEPSCAN-ELISA) / Binding of serum 37 to looped/cyclic peptides of protein X1 of SARS-CoV Urbani / Binding of serum 6 to linear peptides of protein X2 / Binding of serum 37 to linear peptides of protein X2 / Binding of serum 37 to looped/cyclic peptides of protein X2 of SARS-CoV Urbani / Binding of serum 6 to linear peptides of protein M of SARS-CoV Urbani / Binding of serum 37 to linear peptides of protein M of SARS-CoV Urbani / Binding of serum 6 to looped/cyclic peptides of protein M of SARS-CoV Urbani / Binding of serum 37 to looped/cyclic peptides of protein M of SARS-CoV Urbani / Binding of serum 6 to linear peptides of protein X3 of SARS-CoV Urbani / Binding of serum 37 to linear peptides of protein X3 of SARS-CoV Urbani / Binding of serum 37 to looped/cyclic peptides of protein X3 of SARS-CoV Urbani / Binding of serum 6 to linear peptides of protein X4 of SARS-CoV Urbani / Binding of serum 37 to linear peptides of protein X4 of SARS-CoV Urbani / Binding of serum 37 to looped/cyclic peptides of protein X4 of SARS-CoV Urbani / Binding of serum 6 to linear peptides of protein X5 of SARS-CoV Urbani / Binding of serum 37 to linear peptides of protein X5 of SARS-CoV Urbani / Binding of serum 37 to looped/cyclic peptides of protein X5 of SARS-CoV Urbani / Binding of serum 6 to linear peptides of protein N of SARS-CoV Urbani / Binding of serum 37 to linear peptides of protein N of SARS-CoV Urbani / Binding of serum 6 to linear peptide (PEPSCAN-ELISA) / Binding of serum 1a to looped/cyclic peptides of protein N of SARS-CoV Urbani / Binding of serum 1b to looped/cyclic peptides of protein N of SARS-CoV Urbani / Binding of serum 2 to looped/cyclic peptides of protein N of SARS-CoV Urbani / Binding of serum 6 to looped/cyclic peptides of protein N of SARS-CoV Urbani / Binding of serum 37 to looped/cyclic peptides of protein N of SARS-CoV Urbani / Binding of serum 62 to looped/cyclic peptides of protein N of SARS-CoV Urbani / Binding of serum London to looped/cyclic peptides of protein N of SARS-CoV Urbani / Binding of serum SARS-green to looped/cyclic peptides of protein N of SARS-CoV Urbani: unit not given here
# [2] = system: control sera (pooled serum of ten healthy LUMC hospital workers; commercial negative donor pooled serum from the Dutch bloodbank); format: binding, human; design: Binding of Control serum LUMC to linear peptides / Binding of Control serum Blood-bank to linear peptides / Binding of Control serum LUMC to looped peptides / Binding of Control Serum Blood-Bank to Looped peptides / Binding of Control serum LUMC to linear peptides of the protein M of SARS-CoV Urbani / Binding of Control serum Blood-bank to linear peptides of the protein M of SARS-CoV Urbani / Binding of Control serum LUMC to looped peptides of the protein M of SARS-CoV Urbani / Binding of Control Serum Blood-Bank to Looped peptides of the protein M of SARS-CoV Urbani: unit not given here
# [3] = system: rabbit serum obtained by immunizing a rabbit with the SARS-CoV strain Frankfurt 1; format: binding; design: Binding of a rabbit serum to linear peptides / Binding of a rabbit serum to looped peptides / Rabbit serum linear peptides / Rabbit serum looped peptides / Binding of a rabbit serum to linear peptides of protein N of SARS-CoV Urbani (Rabbit serum linear peptides) / Binding of a rabbit serum to looped/cyclic peptides of protein N of SARS-CoV Urbani (Rabbit serum looped peptides): unit not given here
sequence,measurement,setting,value
WIQFMMSRRRLLACL,Binding of serum 1a to linear peptides of protein X2,[1],0.6
same,Binding of serum 1a to looped/cyclic peptides of protein X2 of SARS-CoV Urbani,[1],0.4
same,Binding of serum 1b to linear peptides of protein X2,[1],0.4
same,Binding of serum 1b to looped/cyclic peptides of protein X2 of SARS-CoV Urbani,[1],0.3
same,Binding of serum 2 to linear peptides of protein X2,[1],0.4
same,Binding of serum 2 to looped/cyclic peptides of protein X2 of SARS-CoV Urbani,[1],0.1
same,Binding of serum 6 to linear peptides of protein X2,[1],0.5
same,Binding of serum 6 to looped/cyclic peptides of protein X2 of SARS-CoV Urbani,[1],0.3
same,Binding of serum 37 to linear peptides of protein X2,[1],0.5
same,Binding of serum 37 to looped/cyclic peptides of protein X2 of SARS-CoV Urbani,[1],0.3
same,Binding of serum 62 to linear peptides of protein X2,[1],0.6
same,Binding of serum 62 to looped/cyclic peptides of protein X2 of SARS-CoV Urbani,[1],0.3
same,Binding of serum London to linear peptides of protein X2,[1],0.5
same,Binding of serum London to looped/cyclic peptides of protein X2 of SARS-CoV Urbani,[1],0.3
same,Binding of serum SARS-green to linear peptides of protein X2,[1],0.5
same,Binding of serum SARS-green to looped/cyclic peptides of protein X2 of SARS-CoV Urbani,[1],0.2
same,Binding of serum SARS-yellow to linear peptides of protein X2,[1],0.7
same,Binding of serum SARS-yellow to looped/cyclic peptides of protein X2 of SARS-CoV Urbani,[1],0.4
same,Binding of Control Serum Blood-Bank to Looped peptides,[2],0.3
same,Binding of Control serum Blood-bank to linear peptides,[2],0.6
same,Binding of Control serum LUMC to linear peptides,[2],0.4
same,Binding of Control serum LUMC to looped peptides,[2],0.3
same,Binding of a rabbit serum to linear peptides,[3],0.5
same,Binding of a rabbit serum to looped peptides,[3],1.3
TEVYYQLESTQITTD,Binding of serum 1a to linear peptides of protein X1 of SARS-CoV Urbani,[1],0.8
same,Binding of serum 1a to looped/cyclic peptides of protein X1 of SARS-CoV Urbani,[1],0.5
same,Binding of serum 1b to linear peptides of protein X1 of SARS-CoV Urbani,[1],0.8
same,Binding of serum 1b to looped/cyclic peptides of protein X1 of SARS-CoV Urbani,[1],0.5
same,Binding of serum 2 to linear peptides of protein X1 of SARS-CoV Urbani,[1],0.5
same,Binding of serum 2 to looped/cyclic peptides of protein X1 of SARS-CoV Urbani,[1],0.2
same,Binding of serum 6 to linear peptides of protein X1 of SARS-CoV Urbani,[1],0.5
same,Binding of serum 6 to looped/cyclic peptides of protein X1 of SARS-CoV Urbani,[1],0.3
same,Binding of serum 37 to linear peptides of protein X1 of SARS-CoV Urbani,[1],0.9
same,Binding of serum 37 to looped/cyclic peptides of protein X1 of SARS-CoV Urbani,[1],0.5
same,Binding of serum 62 to linear peptides of protein X1 of SARS-CoV Urbani,[1],0.6
same,Binding of serum 62 to looped/cyclic peptides of protein X1 of SARS-CoV Urbani,[1],0.4
same,Binding of serum London to linear peptides of protein X1 of SARS-CoV Urbani,[1],0.4
same,Binding of serum London to looped/cyclic peptides of protein X1 of SARS-CoV Urbani,[1],0.2
same,Binding of serum SARS-green to linear peptides of protein X1 of SARS-CoV Urbani,[1],0.5
same,Binding of serum SARS-green to looped/cyclic peptides of protein X1 of SARS-CoV Urbani,[1],0.3
same,Binding of serum SARS-yellow to linear peptides of protein X1 of SARS-CoV Urbani,[1],0.6
same,Binding of serum SARS-yellow to looped/cyclic peptides of protein X1 of SARS-CoV Urbani,[1],0.3
same,Binding of Control Serum Blood-Bank to Looped peptides,[2],0.4
same,Binding of Control serum Blood-bank to linear peptides,[2],0.5
same,Binding of Control serum LUMC to linear peptides,[2],0.5
same,Binding of Control serum LUMC to looped peptides,[2],0.4
same,Binding of a rabbit serum to linear peptides,[3],0.1
same,Binding of a rabbit serum to looped peptides,[3],0.4
TPNVTINCQDPAGGA,Binding of serum 1a to linear peptides of protein X5 of SARS-CoV Urbani,[1],0.8
same,Binding of serum 1a to looped/cyclic peptides of protein X5 of SARS-CoV Urbani,[1],0.4
same,Binding of serum 1b to linear peptides of protein X5 of SARS-CoV Urbani,[1],0.4
same,Binding of serum 2 to linear peptides of protein X5 of SARS-CoV Urbani,[1],0.4
same,Binding of serum 2 to looped/cyclic peptides of protein X5 of SARS-CoV Urbani,[1],0.3
same,Binding of serum 6 to linear peptides of protein X5 of SARS-CoV Urbani,[1],0.1
same,Binding of serum 6 to looped/cyclic peptides of protein X5 of SARS-CoV Urbani,[1],0.1
same,Binding of serum 37 to linear peptides of protein X5 of SARS-CoV Urbani,[1],0.8
same,Binding of serum 37 to looped/cyclic peptides of protein X5 of SARS-CoV Urbani,[1],0.4
same,Binding of serum 62 to linear peptides of protein X5 of SARS-CoV Urbani,[1],0.5
same,Binding of serum 62 to looped/cyclic peptides of protein X5 of SARS-CoV Urbani,[1],0.2
same,Binding of serum London to linear peptides of protein X5 of SARS-CoV Urbani,[1],0.6
same,Binding of serum London to looped/cyclic peptides of protein X5 of SARS-CoV Urbani,[1],0.1
same,Binding of serum SARS-green to linear peptides of protein X5 of SARS-CoV Urbani,[1],0.4
same,Binding of serum SARS-green to looped/cyclic peptides of protein X5 of SARS-CoV Urbani,[1],0.2
same,Binding of serum SARS-yellow to linear peptides of protein X5 of SARS-CoV Urbani,[1],0.0
same,Binding of serum SARS-yellow to looped/cyclic peptides of protein X5 of SARS-CoV Urbani,[1],0.2
same,Binding of Control Serum Blood-Bank to Looped peptides,[2],0.3
same,Binding of Control serum Blood-bank to linear peptides,[2],0.6
same,Binding of Control serum LUMC to linear peptides,[2],0.5
same,Binding of Control serum LUMC to looped peptides,[2],0.2
same,Rabbit serum linear peptides,[3],0.0
same,Rabbit serum looped peptides,[3],0.1
ARSVSPKLFIRQEEV,Binding of serum 1a to linear peptides of protein X4 of SARS-CoV Urbani,[1],0.7
same,Binding of serum 1a to looped/cyclic peptides of protein X4 of SARS-CoV Urbani,[1],0.8
same,Binding of serum 1b to linear peptides of protein X4 of SARS-CoV Urbani,[1],0.6
same,Binding of serum 1b to looped/cyclic peptides of protein X4 of SARS-CoV Urbani,[1],0.5
same,Binding of serum 2 to linear peptides of protein X4 of SARS-CoV Urbani,[1],0.5
same,Binding of serum 2 to looped/cyclic peptides of protein X4 of SARS-CoV Urbani,[1],0.7
same,Binding of serum 6 to linear peptides of protein X4 of SARS-CoV Urbani,[1],0.6
same,Binding of serum 6 to looped/cyclic peptides of protein X4 of SARS-CoV Urbani,[1],0.5
same,Binding of serum 37 to linear peptides of protein X4 of SARS-CoV Urbani,[1],0.7
same,Binding of serum 37 to looped/cyclic peptides of protein X4 of SARS-CoV Urbani,[1],0.7
same,Binding of serum 62 to linear peptides of protein X4 of SARS-CoV Urbani,[1],0.7
same,Binding of serum 62 to looped/cyclic peptides of protein X4 of SARS-CoV Urbani,[1],0.6
same,Binding of serum London to linear peptides of protein X4 of SARS-CoV Urbani,[1],0.7
same,Binding of serum London to looped/cyclic peptides of protein X4 of SARS-CoV Urbani,[1],0.3
same,Binding of serum SARS-green to linear peptides of protein X4 of SARS-CoV Urbani,[1],0.6
same,Binding of serum SARS-green to looped/cyclic peptides of protein X4 of SARS-CoV Urbani,[1],0.6
same,Binding of serum SARS-yellow to linear peptides of protein X4 of SARS-CoV Urbani,[1],0.1
same,Binding of serum SARS-yellow to looped/cyclic peptides of protein X4 of SARS-CoV Urbani,[1],0.5
same,Binding of Control Serum Blood-Bank to Looped peptides,[2],0.7
same,Binding of Control serum Blood-bank to linear peptides,[2],0.7
same,Binding of Control serum LUMC to linear peptides,[2],0.6
same,Binding of Control serum LUMC to looped peptides,[2],0.7
same,Rabbit serum linear peptides,[3],0.3
same,Rabbit serum looped peptides,[3],0.2
FLFLAWIMLLQFAYS,Binding of serum 1a to linear peptides of protein M of SARS-CoV Urbani,[1],0.7
same,Binding of serum 1a to looped/cyclic peptides of protein M of SARS-CoV Urbani,[1],0.8
same,Binding of serum 1b to linear peptides of protein M of SARS-CoV Urbani,[1],0.6
same,Binding of serum 1b to looped/cyclic peptides of protein M of SARS-CoV Urbani,[1],0.7
same,Binding of serum 2 to linear peptides of protein M of SARS-CoV Urbani,[1],0.4
same,Binding of serum 2 to looped/cyclic peptides of protein M of SARS-CoV Urbani,[1],0.6
same,Binding of serum 6 to linear peptides of protein M of SARS-CoV Urbani,[1],0.4
same,Binding of serum 6 to looped/cyclic peptides of protein M of SARS-CoV Urbani,[1],0.9
same,Binding of serum 37 to linear peptides of protein M of SARS-CoV Urbani,[1],0.4
same,Binding of serum 37 to looped/cyclic peptides of protein M of SARS-CoV Urbani,[1],0.7
same,Binding of serum 62 to linear peptides of protein M of SARS-CoV Urbani,[1],0.4
same,Binding of serum 62 to looped/cyclic peptides of protein M of SARS-CoV Urbani,[1],0.8
same,Binding of serum London to linear peptides of protein M of SARS-CoV Urbani,[1],0.3
same,Binding of serum London to looped/cyclic peptides of protein M of SARS-CoV Urbani,[1],0.3
same,Binding of serum SARS-green to linear peptides of protein M of SARS-CoV Urbani,[1],0.4
same,Binding of serum SARS-green to looped/cyclic peptides of protein M of SARS-CoV Urbani,[1],0.3
same,Binding of serum SARS-yellow to linear peptides of protein M of SARS-CoV Urbani,[1],0.2
same,Binding of serum SARS-yellow to looped/cyclic peptides of protein M of SARS-CoV Urbani,[1],0.4
same,Binding of Control Serum Blood-Bank to Looped peptides of the protein M of SARS-CoV Urbani,[2],0.8
same,Binding of Control serum Blood-bank to linear peptides of the protein M of SARS-CoV Urbani,[2],0.5
same,Binding of Control serum LUMC to linear peptides of the protein M of SARS-CoV Urbani,[2],0.5
same,Binding of Control serum LUMC to looped peptides of the protein M of SARS-CoV Urbani,[2],0.7
same,Rabbit serum linear peptides,[3],0.2
same,Rabbit serum looped peptides,[3],0.3
